Results published in US11860161B2, “Detection and treatment of autoimmune disorders” (Seattle Children's Hospital, priority 2007, dated 2024).
Entries after “also recorded” stand apart in the source; their conditions may differ. Where a SMILES comes first, the peptide text is derived from it. The star is where a group is joined. Cbz = O=C(OCc1ccccc1)*; CH2F = FC*

Legend:
Mo = settings: in vitro, prior study; cited from earlier work
PD-L1 on APC = test: PD-L1 surface expression on APC (Mo, mDC) of PBMC cultured with caspase inhibitors; format: cell-based, human
Protocol: (§1) In order to determine which caspase (or caspases) is responsible for downmodulation of PD-L1 during active lupus, the effects of specific caspase inhibitors on PD-L1 expression in human APC were tested (Table IV). Control and SLE PBMC were incubated for one day in the presence of the individual caspase inhibitors at doses ranging from 10 uM to 50 uM (R&D Systems), with the appropriate level of DMSO as the carrier control (0.5% final concentration). Treated cells were assayed for cell death and apoptosis using Annexin V and PI (example shown in FIG. 4), as well as stained for cell-surface expression of PD-L1 on APC.
(§2) PBMC were thawed, washed, and diluted to 1-2×10^6 cells/ml in culture medium consisting of RPMI 1640 with L-glutamine (CellGro), 10% heat-inactivated NB human serum (Valley Biomedical), 1% penicillin/streptomycin (CellGro), and 0.1% beta-mercaptoethanol. Cells were plated in round-bottom 96-well plates (Coming Costar) and incubated at 37° C. in a humidified cell chamber with 5% CO2. Some wells were treated with pan-/poly-caspase inhibitors at the time of plating: 50 uM Q- Val-Asp-(non-o-methylated)—OPh (OPH) or Z- Val-Ala-Asp-(beta-o-methyl)-fluroromethylketone (Z-VAD) (both from R&D Systems), or DMSO as the carrier control (0.5% final concentration).
(§3) At the timepoints indicated, cells were surface-stained using fluorochrome- or biotin-conjugated monoclonal antibodies: anti-CD1c, (Miltenyi), anti-CD3, anti-PD-L1 (eBioscience), anti-CD11b, anti-CD11c, anti-CD14, anti-CD-86, anti-PD-L2 (Pharmingen/BD Biosciences), anti-CD45RO, anti-CD80, anti-CD83, and/or anti-HLA-DR (BioLegend), with isotype-matched, fluorochrome/biotin-labeled irrelevant monoclonal antibodies as controls. All samples were blocked using 0.5% human serum and anti-FeR antibody (Miltenyi) during staining. Cells were fixed using 2% paraformaldehyde in PBS after preliminary experiments indicated no effect of cell fixation on expression levels of PD-L1 and other surface markers. To assess apoptosis, some cultures were stained in parallel with Annexin V and propidium iodide (PI) (both from Becton Dickinson) as per the manufacturer's instructions. Flow cytometry was performed using a FACSCalibur or LSR II cytometer (Becton Dickinson), and data were analyzed using FlowJo software (Macintosh Version 6.3).

T lymphocytes = test: Foxp3 expression in T lymphocytes of PBMC cultures treated with OPH; format: cell-based, human; settings: 50 uM; healthy control and SLE cultures; three days later
Protocol: PBMC were cultured as above and a duplicate well of each sample treated with 50 uM OPH. PD-L1 upregulation on APC was confirmed in these cultures, and an aliquot of each sample was incubated further in order to allow interaction of APC with autologous T cells in culture. Three days later, the cells were fixed and permeabilized, and the T lymphocytes were assayed for intracellular expression of the regulatory T cell protein, Foxp3.

PBMC = PBMC cell death and apoptosis (Annexin V and PI) with caspase inhibitors; format: cell-based, human; settings: 50 uM; control, SLE flare and SLE remission cultures; one day (FIG. 4B)
Protocol: as §1
The inhibitors enter living cells and bind irreversibly at the caspase active sites, preventing further proteolytic activity by the enzyme. After incubation with caspase inhibitors, PBMC were gated by forward and side scatter and analyzed for percent cell death and apoptosis using Annexin V and PI (see FIG. 10). […] However, higher doses of some caspase-specific inhibitors (50 uM), did alter PD-L1 levels, both in Mo and mDC (example shown in FIG. 11). Normal PBMC were incubated in medium with or without various caspase inhibitors, and PD-L1 protein levels assessed at day one. […]

[1] = tested on: APC surface markers CD80/86; test: Other APC surface markers (CD80/86 etc.) with caspase inhibitors; format: cell-based, human; settings: PBMC from healthy controls, SLE flare, SLE remission (FIG. 5B)
Protocol: as §2
as §3, with “Cells were fixed using 2% paraformaldehyde in PBS after preliminary experiments indicated no effect of cell fixation on expression levels of PD-L1 and other surface markers. To assess apoptosis, some cultures were stained in parallel with Annexin V and propidium iodide (PI) (both from Becton Dickinson) as per the manufacturer's instructions.” left out

PD-L2 = PD-L2 expression on APC with caspase inhibitors; format: cell-based, human; settings: two healthy controls, through four days of culture (FIG. 5D)
Protocol: as §2
as §3, with “Cells were fixed using 2% paraformaldehyde in PBS after preliminary experiments indicated no effect of cell fixation on expression levels of PD-L1 and other surface markers. To assess apoptosis, some cultures were stained in parallel with Annexin V and propidium iodide (PI) (both from Becton Dickinson) as per the manufacturer's instructions.” left out

leukocytes = settings: cited from earlier work
human macrophages = settings: cited from earlier work

Compound: Sc1ncnc2nc[nH]c12 [6-mercaptopurine]
- effect on markers of Mo differentiation and maturation (Mo): no significant effect

Compound: CC(C)[C@H](NC(=O)c1ccc2ccccc2n1)C(=O)N[C@@H](CC(=O)O)C(=O)COc1c(F)cccc1F [OPH, Q- Val-Asp-(non-o-methylated)—OPh]
- PD-L1 expression on the surface of both Mo and mDC (PD-L1 on APC; 50 uM, day one): increased
- PD-L1 expression in Mo compared to untreated (PD-L1 on APC; 50 uM, controls, SLE flare, SLE remission (FIG. 4C)): significantly increases
- PD-L1 on APC from healthy controls (PD-L1 on APC; CD80/86+ APC, one day (FIG. 7)): upregulated PD-L 1 further; also recorded: increased
- PD-L1 on PBMC (PD-L1 on APC; FIG. 5A): increases
- number of CD14int among PD-L1+ PBMC (PD-L1 on APC; FIG. 5A): increases
- mean percentage of Mo expressing PD-L1 (PD-L1 on APC; SLE flare, 50 uM, untreated 45%): 97%
- mean percentage of mDC expressing PD-L1 (PD-L1 on APC; all three groups, 50 uM, P<0.013): more than doubled
- increase of PD-L1 expression in immature mDC (PD-L1 on APC; all three groups, 50 uM, p<0.02): two- to three-fold
- PD-L1 levels in SLE flare APC (PD-L1 on APC; one day (FIG. 7)): approached those of untreated control cells; also recorded: restored normal levels
- level of Foxp3 expression (Foxp3 MFI and number of CD4+ cells expressing Foxp3) (T lymphocytes): remained unchanged
- apoptosis in PBMC (PBMC): reduces
- other APC surface markers [1]: does not increase
- PD-L2 expression (PD-L2): not increased

Compound: COC(=O)CC[C@H](NC(=O)[C@H](CC(=O)OC)NC(=O)OCc1ccccc1)C(=O)N[C@H](C(=O)N[C@@H](CC(=O)OC)C(=O)CF)C(C)C [Z-DEVD-fmk]
- PD-L1 levels (PD-L1 on APC; normal PBMC, control mDC, day one (FIG. 11)): greatly increased

Compound: COC(=O)C[C@H](NC(=O)[C@H](C)NC(=O)[C@@H](NC(=O)OCc1ccccc1)C(C)C)C(=O)CF [Z-VAD, Z- Val-Ala-Asp-(beta-o-methyl)-fluroromethylketone] (Cbz-Val-Ala-Asp(OMe)-CH2F)
- reciprocal relationship between caspase activity and Mo PD-L1 expression (PD-L1 on APC; all PBMC treated): held true
- PD-L2 expression (PD-L2): not increased

Compound: CCN(CC)CCCC(C)Nc1ccnc2cc(Cl)ccc12 (stereo not drawn) [chloroquine]
- effect on markers of Mo differentiation and maturation (Mo): no significant effect

Compound: CN(C)CCCN1c2ccccc2Sc2ccc(Cl)cc21 [chlorpromazine]
- caspase activation and apoptosis in leukocytes (leukocytes): activate caspases and trigger apoptosis

Compound: COc1c(C)c2c(c(O)c1C/C=C(\C)CCC(=O)OCCN1CCOCC1)C(=O)OC2 [mycophenolate mofetil]
- effect on markers of Mo differentiation and maturation (Mo): no significant effect

Compound: Infliximab: can cause a lupus-like syndrome in susceptible individuals
- caspase activation and apoptosis in human macrophages (human macrophages): promote caspase activation and apoptosis
